Results on 13 compounds are retold here after PubChem BioAssay (NCI).

Some test systems named below: UACC-62 melanoma; SK-MEL-28 melanoma; MDA-MB-435; IGROV1 ovarian; NCI-H460 lung; MCF7 breast; U251 CNS; SF-539 CNS; HCC-2998 colon; A549 NSCLC.
Common to all, as to assay: DTP human tumour cell line panel, 48 h

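Grown in 96-well plates, cells were treated for 48 hours with each compound at five concentrations. Insufficient inhibition: endpoint recorded as highest concentration tested. The concentration for 50% growth inhibition is given as GI50. The concentration for full growth arrest is given as TGI.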

The term TGI denotes the concentration giving total growth inhibition. `O=c1cc(N2CCOCC2)[nH]c(=O)n1-c1ccc(F)cc1`: the TGI with UACC-62 melanoma, in the test with SK-MEL-28 melanoma, in the test with MDA-MB-435, with IGROV1 ovarian, in the test on NCI-H460 lung and in the test on MCF7 breast was more than 100 µM throughout. Besides, the TGI in the test on U251 CNS, in the test on SF-539 CNS and in the test with HCC-2998 colon was more than 100 µM each time.
In the case of `Oc1c(C2=NNC(c3ccc(Cl)cc3Cl)C2)ccc2ccccc12` (stereo not drawn), the TGI in the test on UACC-62 melanoma, in the test on SK-MEL-28 melanoma, in the test with MDA-MB-435, in the test with IGROV1 ovarian, in the test with NCI-H460 lung and with MCF7 breast was more than 100 µM each time. Further, the TGI in the test with U251 CNS, with A549 NSCLC, in the test on SF-539 CNS and in the test with HCC-2998 colon was more than 100 µM each time.
Take `O=C(NCC(=O)N1CCCC1C(=O)OC(=O)C1CCCN1C(=O)CNC(=O)OCc1ccccc1)OCc1ccccc1` (stereo not drawn): the TGI is 34.6 µM in the test with UACC-62 melanoma; 70.4 µM in the test on SK-MEL-28 melanoma; 68.3 µM with MDA-MB-435; more than 100 µM in the test with IGROV1 ovarian; more than 100 µM in the test with NCI-H460 lung; 60 µM in the test on MCF7 breast. In addition, the TGI is more than 100 µM with U251 CNS, more than 100 µM with A549 NSCLC, 40.6 µM in the test with SF-539 CNS and more than 100 µM with HCC-2998 colon.
Turning to `CC(C)(Br)C(Br)CCC1(C2CO2)CO1` (stereo not drawn), the TGI in the test with SK-MEL-28 melanoma, in the test with MDA-MB-435, with IGROV1 ovarian, in the test on MCF7 breast, in the test on U251 CNS and with A549 NSCLC was more than 5 µM each time. The TGI in the test on SF-539 CNS and with HCC-2998 colon was more than 5 µM each time.
By GI50 is commonly meant the concentration that inhibits growth by half. For the compound `CN(C)CCCNC(=O)c1cc2[nH]c3c(cnc4ccc([N+](=O)[O-])cc43)c(=O)c2n1C`, the GI50 with SK-MEL-28 melanoma is 19.7 µM; in the test with MDA-MB-435, 17.3 µM; in the test on IGROV1 ovarian, 12.5 µM; in the test on NCI-H460 lung, 13.3 µM; in the test on MCF7 breast it was 15.5 µM; with U251 CNS, 17.5 µM. Also, the GI50 in the test on A549 NSCLC was 17.9 µM; in the test on SF-539 CNS it was 17.6 µM; in the test with HCC-2998 colon it was 15.6 µM. In addition, the TGI is 33.9 µM with SK-MEL-28 melanoma; 33.6 µM with MDA-MB-435; 27.7 µM with IGROV1 ovarian; 26 µM with NCI-H460 lung; 28.9 µM in the test on MCF7 breast; 31.3 µM with U251 CNS. Further, the TGI in the test with A549 NSCLC amounted to 32.1 µM; in the test with SF-539 CNS, 31.7 µM; in the test on HCC-2998 colon, 29 µM.
Take `CCCn1c2ccccc2c2ccc3c(c21)C(=O)C=CC3=O`: the TGI with UACC-62 melanoma was more than 10 µM; in the test with SK-MEL-28 melanoma, more than 3.16 µM; in the test on MDA-MB-435, 5.29 µM; in the test on IGROV1 ovarian, more than 10 µM; in the test on NCI-H460 lung, more than 10 µM; in the test on MCF7 breast, 4.59 µM. Moreover, the TGI with U251 CNS was more than 10 µM; in the test with A549 NSCLC it was more than 10 µM; with SF-539 CNS, more than 6.41 µM; in the test on HCC-2998 colon it was more than 10 µM.
Consider `Cc1cc(C)n(C(=C(C(Cl)=C(Cl)Cl)[N+](=O)[O-])n2nc(C)cc2C)n1`, for which the TGI with UACC-62 melanoma was 14.9 µM; with SK-MEL-28 melanoma it was 19.7 µM; in the test on MDA-MB-435 it was 5.56 µM; in the test with IGROV1 ovarian it was 14.9 µM; in the test on NCI-H460 lung, 12.7 µM; with MCF7 breast, 8.2 µM. Also, the TGI in the test on U251 CNS was determined as 11.7 µM; in the test on A549 NSCLC it was 11.4 µM; with SF-539 CNS, 16.4 µM; in the test with HCC-2998 colon, 12.5 µM.
On to `NS(=O)(=O)c1ccc(N=Nc2nc3[nH]c(=O)[nH]c(=O)c3[nH]2)cc1`, for which the TGI in the test with UACC-62 melanoma, in the test on SK-MEL-28 melanoma, in the test with MDA-MB-435, in the test with IGROV1 ovarian, in the test with NCI-H460 lung and with MCF7 breast was more than 100 µM throughout. For the same compound, the TGI in the test with U251 CNS, in the test on A549 NSCLC, with SF-539 CNS and in the test on HCC-2998 colon was more than 100 µM in each case.
Consider `CC1(C)CC(=O)c2[nH]c3ccccc3c2CC(=O)NCCc2cn1cn2`, for which the TGI in the test with UACC-62 melanoma, in the test with SK-MEL-28 melanoma, in the test with MDA-MB-435, with IGROV1 ovarian, with NCI-H460 lung and with MCF7 breast was more than 100 µM in each case. Further, the TGI in the test with U251 CNS, with A549 NSCLC, with SF-539 CNS and in the test on HCC-2998 colon was more than 100 µM throughout.
Turning to `CC(=O)Nc1ccc(C(=O)NN2C(=O)CSC2c2ccc([N+](=O)[O-])cc2)cc1` (stereo not drawn), the TGI in the test with UACC-62 melanoma, in the test on SK-MEL-28 melanoma, with MDA-MB-435, in the test with IGROV1 ovarian, in the test with NCI-H460 lung and in the test with MCF7 breast was more than 100 µM each time. The TGI in the test with U251 CNS, with A549 NSCLC, in the test with SF-539 CNS and in the test on HCC-2998 colon was more than 100 µM in each case.
As for `O=C1C2CC=CCC2C(=O)N1n1c(Cc2ccc(Cl)cc2)n[nH]c1=O` (stereo not drawn), the TGI in the test with UACC-62 melanoma, in the test on SK-MEL-28 melanoma, in the test on MDA-MB-435, with IGROV1 ovarian, in the test with MCF7 breast and in the test with U251 CNS was more than 100 µM in each case. Further, the TGI in the test with A549 NSCLC and with HCC-2998 colon was more than 100 µM in each case.
Take `O=C(C=P(c1ccccc1)(c1ccccc1)c1ccccc1)c1ccc(-c2cccc([N+](=O)[O-])c2)s1`: the TGI with UACC-62 melanoma, in the test on SK-MEL-28 melanoma, in the test with MDA-MB-435, in the test on IGROV1 ovarian, in the test on NCI-H460 lung and in the test with MCF7 breast was more than 100 µM throughout. Besides, the TGI with U251 CNS, with A549 NSCLC, in the test with SF-539 CNS and in the test on HCC-2998 colon was more than 100 µM each time.
`CCOC(=O)c1c(-c2ccc(OC)cc2)c(C#N)c(=S)n(C2OC(COC(C)=O)C(OC(C)=O)C(OC(C)=O)C2OC(C)=O)c1-c1ccccc1` (stereo not drawn): the TGI in the test with UACC-62 melanoma, with SK-MEL-28 melanoma, in the test on MDA-MB-435, with IGROV1 ovarian, in the test on NCI-H460 lung and in the test with MCF7 breast was more than 100 µM throughout. Besides, the TGI with U251 CNS, in the test with A549 NSCLC, in the test on SF-539 CNS and with HCC-2998 colon was more than 100 µM throughout.
